Experimental data as given in paper PMC3216401 (Antiviral research, 2011).
Like-named read-outs stand apart in the source and are kept apart here.

Experiments:
[1] = system: A/Thailand/2(Kan-1)/16/2004 (H5N1); test: microbe, parasite or virus in culture; conditions: Influenza A virus, H5N1, MDCK, read-out: IC50, Visual Assay
[2] = system: A/Thailand/2(Kan-1)/16/2004 (H5N1); test: microbe, parasite or virus in culture; conditions: Influenza A virus, H5N1, MDCK, read-out: IC50, Neutral Red Uptake Assay
[3] = system: A/Hong Kong/213/2003 (H5N1); test: microbe, parasite or virus in culture; conditions: Influenza A virus, H5N1, MDCK, read-out: IC50, Neutral Red Uptake Assay
[4] = system: Influenza A/Vietnam/1203/2004 (H5N1); test: microbe, parasite or virus in culture; conditions: H5N1, MDCK, read-out: IC50, Neutral Red Uptake Assay
[5] = system: A/Hong Kong/213/2003 (H5N1); test: microbe, parasite or virus in culture; conditions: Influenza A virus, H5N1, MDCK, read-out: IC50, Visual Assay
[6] = system: A/Thailand/2(Kan-1)/16/2004 (H5N1)
[7] = system: A/Thailand/2(Kan-1)/16/2004 (H5N1); remark: listed apart in the source
[8] = system: Influenza A/Vietnam/1203/2004 (H5N1)
[9] = system: A/Hong Kong/213/2003 (H5N1)
[10] = system: Influenza A/Vietnam/1203/2004 (H5N1); test: microbe, parasite or virus in culture; conditions: H5N1, MDCK, read-out: IC50, Visual Assay
[11] = system: A/Hong Kong/213/2003 (H5N1); remark: listed apart in the source
[12] = system: Influenza A/Vietnam/1203/2004 (H5N1); remark: listed apart in the source
MDCK cells [13] = system: MDCK cells
MDCK cells [14] = system: MDCK cells; remark: listed apart in the source
in vitro [15] = conditions: dog, CC50, Neutral Red Uptake Assay
[16] = system: A/Hong Kong/213/2003 (H5N1); test: microbe, parasite or virus in culture; format: cell-based; conditions: Influenza A virus, H5N1, MDCK, read-out: IC90, VYR Assay
[17] = system: Influenza A/Vietnam/1203/2004 (H5N1); test: microbe, parasite or virus in culture; format: cell-based; conditions: H5N1, MDCK, read-out: IC90, VYR Assay
[18] = system: A/Thailand/2(Kan-1)/16/2004 (H5N1); test: microbe, parasite or virus in culture; format: cell-based; conditions: Influenza A virus, H5N1, MDCK, read-out: IC90, VYR Assay
[19] = mouse, in vivo
in vitro [20] = conditions: dog, CC50, Visual Assay
[21] = system: influenza A/Vietnam/1203/2004 H5N1 virus; conditions: in vivo
influenza virus = conditions: mouse, in vivo, sc; cited from earlier work
influenza virus (H1N1) = conditions: read-out: EC50, influenza virus replication in MDCK cells; cited from earlier work
influenza viruses = test: microbe, parasite or virus in culture; format: cell-based, influenza A and B viruses; conditions: Influenza A virus, read-out: IC50 values, range

SMILES | IC50 [1] [µM] | IC50 [2] [µM] | IC50 [3] [µM] | IC50 [4] [µM] | IC50 [5] [µM] | SI (CC50/IC50), Neutral Red Uptake Assay [6] | SI (CC50/IC50), Visual Assay [7] | SI (CC50/IC50), Neutral Red Uptake Assay [8] | SI (CC50/IC50), Visual Assay [9] | IC50 [10] [µM] | SI (CC50/IC50), Neutral Red Uptake Assay [11] | SI (CC50/IC50), Visual Assay [12] | also measured
Nc1ncnc2c1ncn2[C@@H]1O[C@H](CO)[C@@H](O)[C@H]1F [2’-deoxy-2’-fluoroadenosine] | > 100 | > 100 | > 100 | > 100 | > 100 | 0 | 0 | 0 | 0 | > 100 | 0 | 0 | 
O=c1ccn([C@@H]2O[C@H](CO)[C@@H](O)[C@H]2F)c(=O)[nH]1 [2’-deoxy-2’-fluorouridine] | > 100 |  |  | > 100 |  |  | 0 | 0 |  | > 100 |  | 0 | 
Nc1ccn([C@@H]2O[C@H](CO)[C@@H](O)[C@H]2I)c(=O)n1 [2’-iodo-2’-deoxycytidine] | > 100 | > 100 | > 100 | > 100 | > 100 | 0 | 0 | 0 | 0 | > 100 | 0 | 0 | 
[N-]=[N+]=N[C@@H]1[C@H](O)[C@@H](COP(=O)(O)OP(=O)(O)OP(=O)(O)O)O[C@H]1n1ccc(N)nc1=O [2’-azido-2’-deoxycytidine, 2'-azido-2'-deoxyctidine-5'-triphosphate] |  |  |  |  |  | 0 ± 0 | 0 ± 0 | > 2030 | 0 ± 0 |  | 0 ± 0 |  | CC50, Neutral Red Uptake Assay (MDCK cells [13]): >100 ± 0 µM; CC50, Visual Assay (MDCK cells [14]): >100 ± 0 µM
Nc1nc(=O)n([C@H]2C[C@H](O)[C@@H](CO)O2)cc1F [2'-deoxy-5-fluorocytidine] | > 100 | > 100 | > 100 | 0.09 ± 0.1 | > 100 | 0 ± 0 | 0 ± 0 |  | 0 ± 0 | 0.19 ± 0.03 | 0 ± 0 |  | CC50 (in vitro [15]): > 100 µM; IC90 [16]: > 100 µM; IC90 [17]: 0.13 µM; IC90 [18]: > 100 µM; Tolerability [19]: well- tolerated; Toxicity in mice [19]: considerable toxicity in the form of severe weight loss; CC50 (in vitro [20]): > 100 µM; Inhibition in the H5N1 mouse model [21]: not inhibitory; Toxicity in the H5N1 mouse model [21]: very toxic; Promotion of survival of infected mice ([21]; mouse): not very effective; Protection from death, i.p. ([21]; mouse): not shielded from death
Nc1nc2c(ncn2[C@@H]2O[C@H](CO)[C@@H](O)[C@H]2F)c(=O)[nH]1 [2’-deoxy-2’-fluoroguanosine] | > 100 |  |  | 8.6 | 8.5 |  | 0 | >12 | >12 | 21 |  | >4.8 | Mice protected from death (influenza virus): 50%; EC50 (influenza virus (H1N1)): 18.2 µM; IC50 (influenza viruses): 8.5 to 21 µM
